ChEMBL document CHEMBL4818987, “Recent advances of podophyllotoxin/epipodophyllotoxin hybrids in anticancer activity, mode of action, and structure-activity relationship: An update (2010-2020)” (Eur J Med Chem, 2020)

Columns and labels:
MCF7 [1] = assay: Antiproliferative activity against human MCF7 cells incubated for 72 hrs by MTT assay; format: functional, cell-based; settings: MCF7, 72 h
A549 [2] = assay: Antiproliferative activity against human A549 cells incubated for 72 hrs by MTT assay; format: functional, cell-based; settings: A549, 72 h
SK-OV-3 = assay: Antiproliferative activity against human SK-OV-3 cells incubated for 72 hrs by MTT assay; format: functional, cell-based; settings: SK-OV-3, 72 h
HepG2 [3] = assay: Antiproliferative activity against human HepG2 cells incubated for 72 hrs by MTT assay; format: functional, cell-based; settings: HepG2, 72 h
HeLa [4] = assay: Antiproliferative activity against human HeLa cells incubated for 72 hrs by MTT assay; format: functional, cell-based
CT26 = assay: Antiproliferative activity against […] cells incubated for 72 hrs by MTT assay; format: functional, cell-based; settings: Mus musculus, CT26, 72 h
B16-F10 = assay: Antiproliferative activity against mouse B16/F10 cells incubated for 72 hrs by MTT assay; format: functional, cell-based; settings: B16-F10, 72 h
K562 [5] = assay: Cytotoxicity against human K562 cells incubated for 72 hrs by CCK8 assay; format: functional, cell-based; settings: K562, 72 h
K562/Adr [6] = assay: Cytotoxicity against human K562/ADR cells incubated for 72 hrs by CCK8 assay; format: functional, cell-based
[7] = Resistance index, ratio of IC50 for human K562/ADR cells to IC50 for human K562 cells; format: functional
K562 [8] = assay: Potency index, ratio of doxorubicin IC50 to compound IC50 for human K562 cells; format: functional
K562/Adr [9] = assay: Potency index, ratio of doxorubicin IC50 to compound IC50 for human K562/ADR cells; format: functional
HeLa [10] = assay: Antiproliferative activity against human HeLa cells by MTT assay; format: functional, cell-based
K562/A02 = assay: Antiproliferative activity against human K562/A02 cells by MTT assay; format: functional, cell-based
MKN-45 = assay: Antiproliferative activity against human MKN-45 cells incubated for 72 hrs by MTT assay; format: functional, cell-based; settings: Homo sapiens, MKN-45, 72 h
BGC-823 [11] = assay: Antiproliferative activity against human BGC-823 cells incubated for 72 hrs by MTT assay; format: functional, cell-based; settings: BGC-823, 72 h
K562/VCR = assay: Cytotoxicity against human K562/VCR cells incubated for 72 hrs by CCK8 assay; format: functional, cell-based
K562 [12] = assay: Antiproliferative activity against human K562 cells incubated for 72 hrs by CCK8 assay; format: functional, cell-based; settings: K562, 72 h
K562/Adr [13] = assay: Potency index, ratio of etoposide IC50 to test compound IC50 for antiproliferative activity against human K562/ADM cells; format: functional
K562 [14] = assay: Potency index, ratio of etoposide IC50 to test compound IC50 for antiproliferative activity against human K562 cells; format: functional
K562/Adr [15] = assay: Antiproliferative activity against human K562/ADR cells incubated for 72 hrs by CCK8 assay; format: functional, cell-based
A549 [16] = assay: Antiproliferative activity against human A549 cells incubated for 24 hrs by MTT assay; format: functional, cell-based; settings: A549, 24 h
MCF7 [17] = assay: Antiproliferative activity against human MCF7 cells incubated for 24 hrs by MTT assay; format: functional, cell-based; settings: MCF7, 24 h
HepG2 [18] = assay: Antiproliferative activity against human HepG2 cells incubated for 24 hrs by MTT assay; format: functional, cell-based; settings: HepG2, 24 h
HeLa [19] = assay: Antiproliferative activity against human HeLa cells incubated for 24 hrs by MTT assay; format: functional, cell-based
L02 [20] = assay: Cytotoxicity against human L02 cells; format: cell-based
A549 [21] = assay: Antiproliferative activity against human A549 cells incubated for 48 hrs by MTT assay; format: functional, cell-based; settings: A549, 48 h
HepG2 [22] = assay: Antiproliferative activity against human HepG2 cells incubated for 48 hrs by MTT assay; format: functional, cell-based; settings: HepG2, 48 h
BGC-823 [23] = assay: Antiproliferative activity against human BGC-823 cells incubated for 48 hrs by MTT assay; format: functional, cell-based; settings: BGC-823, 48 h
L02 [24] = assay: Cytotoxicity against human HL7702 cells incubated for 48 hrs by MTT assay; format: cell-based; settings: L02, 48 h
MCF7 [25] = assay: Cytotoxicity against human MCF7 cells by MTT assay; format: functional, cell-based

Compound `COc1ccc(-c2coc3cc(OCCCCC(=O)O[C@@H]4c5cc6c(cc5[C@@H](c5cc(OC)c(OC)c(OC)c5)[C@H]5C(=O)OC[C@@H]54)OCO6)ccc3c2=O)cc1` has an IC50 (MCF7 [1]) of 213 nM, an IC50 (A549 [2]) of 213 nM and an IC50 (SK-OV-3) of 213 nM. The IC50 (HepG2 [3]) was 213 nM, the IC50 (HeLa [4]) was 213 nM and the IC50 (CT26) was 213 nM. The IC50 (B16-F10) was 213 nM.

For `C=CC(=O)O[C@@H]1c2cc3c(cc2[C@@H](c2cc(OC)c(OC)c(OC)c2)[C@H]2C(=O)OC[C@@H]21)OCO3`, the IC50 (K562 [5]) was 11 nM, the IC50 (K562/Adr [6]) was 11 nM and the “Ratio IC50” value [7] was 1.1. The “Ratio IC50” value (K562 [8]) was 2.2 and the “Ratio IC50” value (K562/Adr [9]) was 2.2.

`COc1cc([C@@H]2c3cc4c(cc3[C@@H](NCc3cc5cc(F)ccc5[nH]3)[C@H]3COC(=O)[C@H]23)OCO4)cc(OC)c1OC` gave an IC50 (HeLa [10]) of 100 nM and an IC50 (K562/A02) of 100 nM.

For `CC1=C(/C=C/C(C)=C/C=C/C(C)=C/C(O)O)C(C)(C)CCC1`, the IC50 (MKN-45) was 88.5 µM and the IC50 (BGC-823 [11]) was 83.1 µM.

`COc1cc([C@@H]2c3cc4c(cc3[C@H](OC(=O)c3ccc5cc[nH]c5c3)[C@H]3COC(=O)[C@H]23)OCO4)cc(OC)c1OC` showed an IC50 (K562 [5]) of 81 nM and an IC50 (K562/VCR) of 81 nM.

With `COc1cc([C@@H]2c3cc4c(cc3[C@H](OC(=O)Cc3c[nH]c5ccccc35)[C@H]3COC(=O)[C@H]23)OCO4)cc(OC)c1OC` the IC50 (K562 [5]) was 43 nM and the IC50 (K562/VCR) was 202 nM.

For `COc1cc([C@@H]2c3cc4c(cc3[C@H](OCC(=O)N3C(=O)C(=O)c5ccc(Cl)cc53)[C@H]3COC(=O)[C@H]23)OCO4)cc(OC)c1OC`, the IC50 (K562 [12]) was 19 nM, the “Ratio IC50” value (K562/Adr [13]) was 8.8 and the “Ratio IC50” value (K562 [14]) was 8.8. It also gave an IC50 (K562/Adr [15]) of 19 nM.

For `COc1ccc2[nH]c(CN[C@@H]3c4cc5c(cc4[C@@H](c4cc(OC)c(OC)c(OC)c4)[C@H]4C(=O)OC[C@@H]43)OCO5)cc2c1`, the IC50 (HeLa [10]) was 100 nM and the IC50 (K562/A02) was 100 nM.

`COc1ccc(-c2nnc(SCC(=O)O[C@H]3c4cc5c(cc4[C@@H](c4cc(OC)c(OC)c(OC)c4)[C@H]4C(=O)OC[C@@H]43)OCO5)o2)cc1` showed an IC50 (A549 [16]) of 2540 nM, an IC50 (MCF7 [17]) of 2540 nM and an IC50 (HepG2 [18]) of 2540 nM. The IC50 (HeLa [19]) was 2540 nM and the IC50 (L02 [20]) was 92.4 µM.

`COc1cc([C@@H]2c3cc4c(cc3[C@H](OC(=O)c3ccc5[nH]ccc5c3)[C@H]3COC(=O)[C@H]23)OCO4)cc(OC)c1OC` gave an IC50 (K562 [5]) of 81 nM and an IC50 (K562/VCR) of 81 nM.

For `COc1cc([C@@H]2c3cc4c(cc3[C@H](OCC(=O)N3C(=O)C(=O)c5c(Br)cccc53)[C@H]3COC(=O)[C@H]23)OCO4)cc(OC)c1OC`, the IC50 (K562 [12]) was 19 nM, the “Ratio IC50” value (K562/Adr [13]) was 8.8 and the “Ratio IC50” value (K562 [14]) was 8.8. The IC50 (K562/Adr [15]) was 19 nM.

`COc1cc([C@@H]2c3cc4c(cc3[C@@H](Sc3nc(N)nc5nc[nH]c35)[C@H]3COC(=O)[C@H]23)OCO4)cc(OC)c1OC` showed an IC50 (A549 [21]) of 300 nM, an IC50 (HepG2 [22]) of 300 nM and an IC50 (BGC-823 [23]) of 300 nM. For the same compound, the IC50 (L02 [24]) was 300 nM.

Compound `COc1cc([C@@H]2c3cc4c(cc3[C@@H](OCc3cn([C@@H]5O[C@H](COC(C)=O)[C@H](OC(C)=O)[C@H](OC(C)=O)[C@H]5OC(C)=O)nn3)[C@H]3COC(=O)[C@H]23)OCO4)cc(OC)c1OC` has an IC50 (MCF7 [25]) of 1250 nM.

With `COc1cc([C@@H]2c3cc4c(cc3[C@@H](OC(=O)/C=C/c3ccc([N+](=O)[O-])cc3)[C@H]3COC(=O)[C@H]23)OCO4)cc(OC)c1OC` the IC50 (K562 [5]) was 11 nM, the IC50 (K562/Adr [6]) was 11 nM and the “Ratio IC50” value [7] was 1.1. For the same compound, the “Ratio IC50” value (K562 [8]) was 2.2 and the “Ratio IC50” value (K562/Adr [9]) was 2.2.
